The text below walks through data of paper PMC4106271 (Journal of Medicinal Chemistry, 2014).

This experiment deals with T1, α1β2γ2S GABAA receptors (Homo sapiens, UniProt P14867+P47870).
T1 construct: expressed in transfected cells; host or cells: Xenopus laevis oocytes injected with cRNA (pCMV cDNA templates)
Put plainly: Two-microelectrode voltage clamp, IGABA modulation, α1β2γ2S. Type of experiment: cell-based. Particulars: for activation at 100 µM / modulation of IGABA (%): 100 μM compound, GABA EC3–7, Xenopus laevis oocytes, mean ± SEM; for nH: Hill coefficient of concentration–response curve; for EC50: IGABA enhancement, GABA EC3–7, Xenopus oocytes. As to the method: Preparation of stage V–VI oocytes from X. laevis and synthesis of capped runoff poly(A) cRNA transcripts from linearized cDNA templates (pCMV vector) was performed as previously described.[49] […] Follicle membranes from isolated oocytes were enzymatically digested with 2 mg/mL collagenase (type 1A, Sigma–Aldrich, Vienna, Austria).
Selected oocytes were injected with 10–50 nL of DEPC-treated water (diethyl pyrocarbonate, Sigma, Vienna, Austria) containing the different GABAA cRNAs at a concentration of approximately 300–3000 pg·nL^–1·subunit^–1.
To ensure expression of the γ2S subunit in the case of α1/2/3/5β2/3γ2S receptors, cRNAs were mixed in a ratio of 1:1:10. […] The amount of cRNAs was determined by means of a NanoDrop ND-1000 (Kisker-Biotech, Steinfurt, Germany).
Oocytes were stored at +18 °C in modified ND96 solution (90 mM NaCl, 1 mM CaCl2, 1 mM KCl, 1 mM MgCl2·6H2O, and 5 mM HEPES [4-(2-hydroxyethyl)-1-piperazineethanesulfonic acid], pH 7.4, all from Sigma–Aldrich, Vienna, Austria).
Chloride currents through GABAA receptors (IGABA) were measured at room temperature (+21 ± 1 °C) by means of a two-microelectrode voltage clamp technique making use of a Turbo TEC-05X amplifier (npi electronic, Tamm, Germany). IGABA were elicited at a holding potential of –70 mV. Data acquisition was carried out by means of an Axon Digidata 1322A interface using pCLAMP v.10 (Molecular Devices, Sunnyvale, CA). The modified ND96 solution was used as bath solution.
GABA and the studied derivatives were applied by means of the ScreeningTool (npi electronic, Tamm, Germany) fast perfusion system as described previously.[50] To elicit IGABA, the chamber was perfused with 120 μL of GABA- or compound-containing solution at a volume rate of 300 μL/s.[34] Care was taken to account for possible slow recovery from increasing levels of desensitization in the presence of high drug concentrations. The duration of washout periods was therefore extended from 1.5 min (<10 μM compounds) to 30 min (≥10 μM compounds). Oocytes with maximal current amplitudes >3 μA were discarded to exclude voltage clamp errors.
Stimulation of chloride currents by modulators of the GABAA receptor was measured at a GABA concentration eliciting between 3% and 7% of the maximal current amplitude (EC3–7). The GABA EC3–7 was determined for each oocyte individually. Enhancement of the chloride current was defined as (IGABA+compd/IGABA) – 1, where IGABA+compd is the current response in the presence of a given compound and IGABA is the control GABA current. IGABA-max reflects the maximal IGABA enhancement. Concentration–response curves were generated and the data were fitted by nonlinear regression analysis using Origin Software (OriginLab Corp.). Data were fitted to the equation 1/(1 + (EC50/[compound])^nH), where nH is the Hill coefficient. […] Statistical significance was calculated by paired Student t-test with a confidence interval of <0.05.

T1 sequence (P14867 28-456): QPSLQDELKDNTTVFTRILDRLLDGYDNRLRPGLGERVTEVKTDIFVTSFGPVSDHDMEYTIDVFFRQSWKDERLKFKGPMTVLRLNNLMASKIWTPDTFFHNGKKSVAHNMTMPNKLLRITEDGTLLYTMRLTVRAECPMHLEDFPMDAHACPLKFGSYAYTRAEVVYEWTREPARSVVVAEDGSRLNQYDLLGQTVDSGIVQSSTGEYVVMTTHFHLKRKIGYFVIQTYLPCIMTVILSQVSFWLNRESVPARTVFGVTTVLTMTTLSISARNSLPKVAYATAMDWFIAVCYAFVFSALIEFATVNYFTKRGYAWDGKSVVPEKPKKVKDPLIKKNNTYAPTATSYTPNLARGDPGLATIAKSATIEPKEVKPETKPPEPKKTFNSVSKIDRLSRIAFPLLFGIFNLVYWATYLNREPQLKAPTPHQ
T1 sequence (P47870 26-512): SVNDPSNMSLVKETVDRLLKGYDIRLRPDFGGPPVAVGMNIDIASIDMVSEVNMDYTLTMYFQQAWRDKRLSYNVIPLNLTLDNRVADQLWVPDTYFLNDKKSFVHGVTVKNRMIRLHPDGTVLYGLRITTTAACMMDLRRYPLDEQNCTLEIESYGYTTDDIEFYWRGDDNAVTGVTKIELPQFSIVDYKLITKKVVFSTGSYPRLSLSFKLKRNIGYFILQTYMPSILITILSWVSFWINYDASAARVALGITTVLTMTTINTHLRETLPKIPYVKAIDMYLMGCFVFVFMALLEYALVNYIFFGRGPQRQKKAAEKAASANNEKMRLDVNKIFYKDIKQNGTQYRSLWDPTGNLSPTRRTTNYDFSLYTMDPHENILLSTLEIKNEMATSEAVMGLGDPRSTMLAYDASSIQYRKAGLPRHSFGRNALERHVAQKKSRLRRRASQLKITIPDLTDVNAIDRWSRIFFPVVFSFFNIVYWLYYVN
T1 sequence (P18507 40-467 isoform P18507-1 partner limits assumed): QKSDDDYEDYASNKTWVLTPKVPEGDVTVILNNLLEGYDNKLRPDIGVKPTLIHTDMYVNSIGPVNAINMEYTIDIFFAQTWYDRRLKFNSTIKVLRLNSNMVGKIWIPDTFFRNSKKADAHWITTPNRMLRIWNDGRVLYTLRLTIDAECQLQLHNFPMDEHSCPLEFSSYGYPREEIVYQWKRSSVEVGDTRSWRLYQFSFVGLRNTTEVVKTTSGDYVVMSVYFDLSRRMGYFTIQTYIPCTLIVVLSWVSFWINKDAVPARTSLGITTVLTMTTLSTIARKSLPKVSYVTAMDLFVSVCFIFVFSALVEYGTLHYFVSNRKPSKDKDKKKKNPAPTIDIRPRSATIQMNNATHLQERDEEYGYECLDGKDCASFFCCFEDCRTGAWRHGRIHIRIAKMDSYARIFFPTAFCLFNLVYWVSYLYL

As for `CSc1ccc(NC(=O)/C=C/C=C/c2ccc3c(c2)OCO3)cc1` [Compound 1], the activation at 100 µM worked out at 0%. On the same count and under the same terms, next, `COc1cc(NC(=O)/C=C/C=C/c2ccc3c(c2)OCO3)cc(OC)c1OC` [Compound 2]: 10%.

As to `O=C(/C=C/C=C/c1ccc2c(c1)OCO2)Nc1c(F)cc(F)cc1F` [Compound 3], the activation at 100 µM worked out at 5 ± 5%. Same read-out and setting: next, `CN(C)CCNC(=O)/C=C/C=C/c1ccc2c(c1)OCO2` [Compound 4]: -15%. For `COc1ccc(CCNC(=O)/C=C/C=C/c2ccc3c(c2)OCO3)cc1OC` [Compound 5], the activation at 100 µM is -2%. As to `O=C(/C=C/C=C/c1ccc2c(c1)OCO2)Nc1cccnc1` [Compound 6], the activation at 100 µM is -7%. On the same count and under the same terms, next, `O=C(/C=C/C=C/c1ccc2c(c1)OCO2)Nc1ccc(Cl)cn1` [Compound 7]: 8 ± 7%. As to `O=C(/C=C/C=C/c1ccc2c(c1)OCO2)NCCCc1ccccc1` [Compound 8], the activation at 100 µM is -8%. Still for that read-out and setting: next, `O=C(/C=C/C=C/c1ccc2c(c1)OCO2)Nc1ccccc1O` [Compound 9]: 0%; `O=C(/C=C/C=C/c1ccc2c(c1)OCO2)Nc1ccc([N+](=O)[O-])cc1O` [Compound 10]: 1 ± 7%.

Consider `CCCCNC(=O)/C=C/C=C/c1ccc2c(c1)OCO2` [Compound 11], for which the activation at 100 µM came out at 51 ± 11%. `O=C(/C=C/C=C/c1ccc2c(c1)OCO2)NCCC(c1ccccc1)c1ccccc1` [Compound 12]: the activation at 100 µM is -6%.

With `O=C(/C=C/C=C/c1ccc2c(c1)OCO2)NC1CCCC1` [Compound 13], the activation at 100 µM amounted to 33 ± 17%. On to `O=C(/C=C/C=C/c1ccc2c(c1)OCO2)NCc1ccccc1` [Compound 14], for which the activation at 100 µM amounted to 0%.

As for `CCCCCCCCCCNC(=O)/C=C/C=C/c1ccc2c(c1)OCO2` [Compound 15], the activation at 100 µM was -1%. The same measure, in the same setting: next, `O=C(/C=C/C=C/c1ccc2c(c1)OCO2)NC12CC3CC(CC(C3)C1)C2` [Compound 16]: -6%; `O=C(/C=C/c1ccc2c(c1)OCO2)N1CCCCC1` [Compound 17]: 79 ± 8%. Regarding `CC(C)N(C(=O)/C=C/c1ccc2c(c1)OCO2)C(C)C` [Compound 18], the activation at 100 µM came to 66 ± 30%.

As to `CN(C)C(=O)/C=C/C=C/c1ccc2c(c1)OCO2` [Compound 20], the activation at 100 µM was determined as 61 ± 28%.

Regarding `CC(C)N(C(=O)/C=C/C=C/c1ccc2c(c1)OCO2)C(C)C` [Compound 22], the nH was 2.3 ± 0.2 and the EC50 worked out at 86.7 ± 13.9 µM. For the molecule `CCCCCCN(CCCCCC)C(=O)/C=C/C=C/c1ccc2c(c1)OCO2` [Compound 26], the activation at 100 µM turned out to be 0%. As to `O=C(/C=C/C=C/c1ccc2c(c1)OCO2)N(C1CCCCC1)C1CCCCC1` [Compound 27], the activation at 100 µM was found to be 13 ± 13%. The same measure, in the same setting: to `O=C(/C=C/C=C/c1ccc2c(c1)OCO2)N1CCOCC1` [Compound 29] belongs 0%; to `CN1CCN(C(=O)/C=C/C=C/c2ccc3c(c2)OCO3)CC1` [Compound 31], -20%; to `CCN1CCN(C(=O)/C=C/C=C/c2ccc3c(c2)OCO3)CC1` [Compound 32], -5%. On to `CC1CCN(C(=O)/C=C/C=C/c2ccc3c(c2)OCO3)CC1` [Compound 35], for which the nH was 1.9 ± 0.3 and the EC50 is 67.7 ± 11 µM.

On to `O=C(/C=C/C=C/c1ccc2c(c1)OCO2)N1CCCC(O)C1` (centres unmarked) [Compound 36], for which the activation at 100 µM amounted to 33 ± 9%.

`O=C(/C=C/C=C/c1ccc2c(c1)OCO2)N1CCC(O)CC1` [Compound 37]: the activation at 100 µM was 26 ± 14%. The same measure, in the same setting: next, `O=C(/C=C/C=C/c1ccc2c(c1)OCO2)N1CCN(CCOCCO)CC1` [Compound 40]: 12 ± 8%; `COc1ccccc1N1CCN(C(=O)/C=C/C=C/c2ccc3c(c2)OCO3)CC1` [Compound 41]: 5 ± 5%; `O=C(/C=C/C=C/c1ccc2c(c1)OCO2)N1CCN(Cc2ccccc2)CC1` [Compound 42]: 48 ± 12%. In the case of `O=C(/C=C/C=C/c1ccc2c(c1)OCO2)N(CC(F)(F)F)CC(F)(F)F` [Compound 43], the nH is reported as 1.6 ± 0.2 and the EC50 was determined as 23.1 ± 3.3 µM. Consider `S=C(/C=C/C=C/c1ccc2c(c1)OCO2)N1CCCCC1` [Compound 44], for which the activation at 100 µM was 17 ± 17%. Still for that read-out and setting: to `C(/C=C/c1ccc2c(c1)OCO2)=C\CN1CCCCC1` [Compound 45] belongs -16%.

With `O=C(c1ccc(-c2ccc3c(c2)OCO3)cc1)N1CCCCC1` [Compound 46], the activation at 100 µM was 42% and the “modulation of IGABA (%)” value is 42 ± 1 %. As to `CCCN(CCC)C(=O)c1ccc(-c2ccc3c(c2)OCO3)cc1` [Compound 47], the nH is 1.2 ± 0.2 and the EC50 was 70.8 ± 21.1 µM. As to `CCCCN(CCCC)C(=O)c1ccc(-c2ccc3c(c2)OCO3)cc1` [Compound 48], the activation at 100 µM worked out at 49 ± 7%.

Take `CC(C)N(C(=O)c1ccc(-c2ccc3c(c2)OCO3)cc1)C(C)C` [Compound 49]: the activation at 100 µM was 30 ± 15%. For the molecule `CCCN(CCC)C(=O)c1cccc(-c2ccc3c(c2)OCO3)c1` [Compound 51, 3-(Benzo[d][1,3]dioxol-5-yl)-N,N-dipropylbenzamide], the activation at 100 µM amounted to 280% and the “modulation of IGABA (%)” value is on record as 280 ± 52 %. As to `CCCCN(CCCC)C(=O)c1cccc(-c2ccc3c(c2)OCO3)c1` [Compound 52], the activation at 100 µM stood at 63 ± 12%. As for `CC(C)N(C(=O)c1cccc(-c2ccc3c(c2)OCO3)c1)C(C)C` [Compound 53], the nH came out at 1.5 ± 0.2 and the EC50 was determined as 55.3 ± 17.6 µM.

With `O=C(c1ccccc1-c1ccc2c(c1)OCO2)N1CCCCC1` [Compound 54], the activation at 100 µM worked out at 34 ± 8%.

`CCCN(CCC)C(=O)c1ccccc1-c1ccc2c(c1)OCO2` [Compound 55]: the activation at 100 µM came out at 79 ± 24%. As for `CCCCN(CCCC)C(=O)c1ccccc1-c1ccc2c(c1)OCO2` [Compound 56], the nH is 1.2 ± 0.0 and the EC50 turned out to be 36.8 ± 2 µM.

In the case of `CC(C)N(C(=O)c1ccccc1-c1ccc2c(c1)OCO2)C(C)C` [Compound 57], the activation at 100 µM stood at 15 ± 15%. On the same count and under the same terms, to `O=C(c1ccc(-c2ccc3c(c2)OCO3)s1)N1CCCCC1` [Compound 58] belongs -5%. Regarding `CCCCN(CCCC)C(=O)c1ccc(-c2ccc3c(c2)OCO3)s1` [Compound 60], the activation at 100 µM is 51 ± 21%.

Take `CC(C)N(C(=O)c1ccc(-c2ccc3c(c2)OCO3)s1)C(C)C` [Compound 61]: the activation at 100 µM amounted to 11 ± 2%. The same measure, in the same setting: to `O=C(c1cccc2c(-c3ccc4c(c3)OCO4)cccc12)N1CCCCC1` [Compound 62, [5-(Benzo[d][1,3]dioxol-5-yl)naphthalen-1-yl](piperidin-1-yl)methanone] belongs 13 ± 2%. The same measure, in the same setting: to `CCCN(CCC)C(=O)c1cccc2c(-c3ccc4c(c3)OCO4)cccc12` [Compound 63] belongs 12 ± 4%. Same read-out and setting: to `CCCCN(CCCC)C(=O)c1cccc2c(-c3ccc4c(c3)OCO4)cccc12` [Compound 64] belongs 4 ± 4%; to `CCCN(CCC)C(=O)/C=C/c1cccc2cc3c(cc12)OCO3` [Compound 66], 67 ± 23%. On to `CCCCN(CCCC)C(=O)/C=C/c1cccc2cc3c(cc12)OCO3` [Compound 67], for which the activation at 100 µM came to 18 ± 9%. For the molecule `O=C(/C=C/c1ccc2cc3c(cc2c1)OCO3)N1CCCCC1` [Compound 68], the activation at 100 µM was -1%.

In the case of `CCCN(CCC)C(=O)/C=C/c1ccc2cc3c(cc2c1)OCO3` [Compound 69], the activation at 100 µM is 74 ± 1%. Take `CCCCN(CCCC)C(=O)/C=C/c1ccc2cc3c(cc2c1)OCO3` [Compound 70]: the activation at 100 µM turned out to be 32% and the “modulation of IGABA (%)” value was found to be 32 ± 12%. With `O=C(c1cccc2cc3c(cc12)OCO3)N1CCCCC1` [Compound 71], the activation at 100 µM amounted to 32 ± 10%. Take `CCCN(CCC)C(=O)c1cccc2cc3c(cc12)OCO3` [Compound 72]: the nH amounted to 1.9 ± 0.2 and the EC50 came to 102 ± 11.2 µM.

Broadly, the EC50 is the concentration that produces a half-maximal response.
